For 14 compounds, Ki results are on record in BindingDB's records for doi:10.1021/jm9600813 (National Institute of Diabetes and Digestive and Kidney …, 1996).

SMILES strings stand for the structures. pKi: −log10 of the molar value.

Chain of Sigma non-opioid intracellular receptor 1 (Cavia porcellus) (Q60492 whole entry, looked up): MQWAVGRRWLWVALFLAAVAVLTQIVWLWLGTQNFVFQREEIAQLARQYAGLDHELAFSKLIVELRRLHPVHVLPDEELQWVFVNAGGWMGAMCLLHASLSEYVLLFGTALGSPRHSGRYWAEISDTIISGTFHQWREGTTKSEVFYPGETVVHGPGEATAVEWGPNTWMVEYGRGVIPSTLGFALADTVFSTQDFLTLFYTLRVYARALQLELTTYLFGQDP

This assay has as its target Sigma non-opioid intracellular receptor 1 (Cavia porcellus) (UniProt Q60492). Kind of assay: Displacement of [3H](+)-pentazocine from Sigma opioid receptor type 1 in guinea pig brain membrane.
`COc1cccc(CC(=O)N(C)CCN2CCCC2)c1` [2-(3-Methoxy-phenyl)-N-methyl-N-(2-pyrrolidin-1-yl-ethyl)-acetamide] had a pKi of 5.51.

As to `COc1ccc(CC(=O)N(C)CCN2CCCC2)cc1` [2-(4-Methoxy-phenyl)-N-methyl-N-(2-pyrrolidin-1-yl-ethyl)-acetamide], the negative-log Ki (pKi) was 5.65.

As to `CN(CCc1ccccc1N)CCN1CCCC1` [2-{2-[Methyl-(2-pyrrolidin-1-yl-ethyl)-amino]-ethyl}-phenylamine], the pKi was 6.54. Next, `CN(CCc1cccc(N)c1)CCN1CCCC1` [3-{2-[Methyl-(2-pyrrolidin-1-yl-ethyl)-amino]-ethyl}-phenylamine]: 6.24; `CN(CCc1ccc(N)cc1)CCN1CCCC1` [4-{2-[Methyl-(2-pyrrolidin-1-yl-ethyl)-amino]-ethyl}-phenylamine]: 6.56. The figure for `CN(CCc1ccccc1[N+](=O)[O-])CCN1CCCC1` [Methyl-[2-(2-nitro-phenyl)-ethyl]-(2-pyrrolidin-1-yl-ethyl)-amine] is 8.11.

Take `CN(CCc1cccc([N+](=O)[O-])c1)CCN1CCCC1` [Methyl-[2-(3-nitro-phenyl)-ethyl]-(2-pyrrolidin-1-yl-ethyl)-amine]: the pKi is 8.19. The figure for `CN(CCc1ccc([N+](=O)[O-])cc1)CCN1CCCC1` [Methyl-[2-(4-nitro-phenyl)-ethyl]-(2-pyrrolidin-1-yl-ethyl)-amine] is 8.37; for `CN(CCN1CCCC1)C(=O)Cc1ccccc1[N+](=O)[O-]` [N-Methyl-2-(2-nitro-phenyl)-N-(2-pyrrolidin-1-yl-ethyl)-acetamide] it is 6.13. The figure for `CN(CCN1CCCC1)C(=O)Cc1cccc([N+](=O)[O-])c1` [N-Methyl-2-(3-nitro-phenyl)-N-(2-pyrrolidin-1-yl-ethyl)-acetamide] is 5.73. For `CN(CCN1CCCC1)C(=O)Cc1ccc([N+](=O)[O-])cc1` [N-Methyl-2-(4-nitro-phenyl)-N-(2-pyrrolidin-1-yl-ethyl)-acetamide], the pKi is 6.06. The figure for `COc1ccccc1CCN(C)CCN1CCCC1` [[2-(2-Methoxy-phenyl)-ethyl]-methyl-(2-pyrrolidin-1-yl-ethyl)-amine] is 7.80; for `COc1cccc(CCN(C)CCN2CCCC2)c1` [[2-(3-Methoxy-phenyl)-ethyl]-methyl-(2-pyrrolidin-1-yl-ethyl)-amine] it is 7.62. The compound `COc1ccc(CCN(C)CCN2CCCC2)cc1` [[2-(4-Methoxy-phenyl)-ethyl]-methyl-(2-pyrrolidin-1-yl-ethyl)-amine] gave a pKi of 7.52.
